± gives the uncertainty stated by the source.
Experiment: xn = mol fraction of the nth substance listed

`CC(O)CO` (stereo not drawn) + O showed a viscosity (293.15 K, 101 kPa, x1 = 0.0256) of 1.469 ± 0.036 mPa·s, a viscosity (293.15 K, 101 kPa, x1 = 0.0558) of 2.125 ± 0.05 mPa·s and a viscosity (293.15 K, 101 kPa, x1 = 0.092) of 3.14 ± 0.072 mPa·s. It also gave a viscosity (293.15 K, 101 kPa, x1 = 0.1362) of 4.717 ± 0.1 mPa·s, a viscosity (293.15 K, 101 kPa, x1 = 0.1913) of 6.665 ± 0.14 mPa·s and a viscosity (293.15 K, 101 kPa, x1 = 0.2619) of 9.425 ± 0.18 mPa·s. It also gave a viscosity (293.15 K, 101 kPa, x1 = 0.3556) of 14.17 ± 0.24 mPa·s, a viscosity (293.15 K, 101 kPa, x1 = 0.4862) of 21.99 ± 0.31 mPa·s and a viscosity (293.15 K, 101 kPa, x1 = 0.6804) of 35.18 ± 0.34 mPa·s. For the same molecule, the viscosity (298.15 K, 100 kPa, x1 = 0.2) was 5.452 ± 0.064 mPa·s, the viscosity (298.15 K, 100 kPa, x1 = 0.4) was 12.77 ± 0.15 mPa·s and the viscosity (298.15 K, 100 kPa, x1 = 0.6) was 21.63 ± 0.25 mPa·s. For the same molecule, the viscosity (298.15 K, 100 kPa, x1 = 0.8) was 32.85 ± 0.38 mPa·s, the viscosity (298.15 K, 101 kPa, x1 = 0.197) was 5.634 ± 0.056 mPa·s and the viscosity (298.15 K, 101 kPa, x1 = 0.3086) was 9.397 ± 0.087 mPa·s. It also gave a viscosity (298.15 K, 101 kPa, x1 = 0.3774) of 12.17 ± 0.11 mPa·s, a viscosity (298.15 K, 101 kPa, x1 = 0.4524) of 15.52 ± 0.14 mPa·s and a viscosity (298.15 K, 101 kPa, x1 = 0.5109) of 18.22 ± 0.16 mPa·s. It also gave a viscosity (298.15 K, 101 kPa, x1 = 0.5926) of 22.24 ± 0.2 mPa·s, a viscosity (298.15 K, 101 kPa, x1 = 0.6898) of 27.16 ± 0.24 mPa·s and a viscosity (298.15 K, 101 kPa, x1 = 0.8043) of 33.02 ± 0.29 mPa·s. It also gave a viscosity (298.15 K, 101 kPa, x1 = 0.8747) of 36.98 ± 0.32 mPa·s, a viscosity (298.15 K, 101 kPa, x1 = 0.9466) of 41.1 ± 0.36 mPa·s and a viscosity (298.15 K, 101.3 kPa, x1 = 0.03) of 1.311 ± 0.036 mPa·s. The viscosity (298.15 K, 101.3 kPa, x1 = 0.06) was 1.851 ± 0.05 mPa·s, the viscosity (298.15 K, 101.3 kPa, x1 = 0.1) was 2.733 ± 0.072 mPa·s and the viscosity (298.15 K, 101.3 kPa, x1 = 0.12) was 3.233 ± 0.085 mPa·s. It also gave a viscosity (298.15 K, 101.3 kPa, x2 = 0.044) of 41.25 ± 0.2 mPa·s, a viscosity (303.15 K, 101 kPa, x1 = 0.0101) of 0.902 ± 0.009 mPa·s and a viscosity (303.15 K, 101 kPa, x1 = 0.02) of 1.022 ± 0.01 mPa·s. It also gave a viscosity (303.15 K, 101 kPa, x1 = 0.0256) of 1.133 ± 0.028 mPa·s, a viscosity (303.15 K, 101 kPa, x1 = 0.03) of 1.143 ± 0.011 mPa·s and a viscosity (303.15 K, 101 kPa, x1 = 0.0399) of 1.282 ± 0.012 mPa·s. For the same molecule, the viscosity (303.15 K, 101 kPa, x1 = 0.0501) was 1.424 ± 0.013 mPa·s, the viscosity (303.15 K, 101 kPa, x1 = 0.0558) was 1.572 ± 0.037 mPa·s and the viscosity (303.15 K, 101 kPa, x1 = 0.0598) was 1.568 ± 0.014 mPa·s. For the same molecule, the viscosity (303.15 K, 101 kPa, x1 = 0.07) was 1.726 ± 0.016 mPa·s, the viscosity (303.15 K, 101 kPa, x1 = 0.08) was 1.896 ± 0.017 mPa·s and the viscosity (303.15 K, 101 kPa, x1 = 0.0899) was 2.059 ± 0.019 mPa·s. The viscosity (303.15 K, 101 kPa, x1 = 0.092) was 2.236 ± 0.051 mPa·s, the viscosity (303.15 K, 101 kPa, x1 = 0.1) was 2.246 ± 0.02 mPa·s and the viscosity (303.15 K, 101 kPa, x1 = 0.1362) was 3.17 ± 0.07 mPa·s. It also gave a viscosity (303.15 K, 101 kPa, x1 = 0.1913) of 4.481 ± 0.093 mPa·s, a viscosity (303.15 K, 101 kPa, x1 = 0.2619) of 6.027 ± 0.12 mPa·s and a viscosity (303.15 K, 101 kPa, x1 = 0.3556) of 8.744 ± 0.15 mPa·s. The viscosity (303.15 K, 101 kPa, x1 = 0.4862) was 13.55 ± 0.19 mPa·s, the viscosity (303.15 K, 101 kPa, x1 = 0.6804) was 21 ± 0.21 mPa·s and the viscosity (303.15 K, 101 kPa, x2 = 0.97) was 1.143 ± 0.01 mPa·s. The viscosity (308.15 K, 101 kPa, x1 = 0.0101) was 0.81 ± 0.008 mPa·s, the viscosity (308.15 K, 101 kPa, x1 = 0.02) was 0.91 ± 0.009 mPa·s and the viscosity (308.15 K, 101 kPa, x1 = 0.0399) was 1.13 ± 0.011 mPa·s. For the same molecule, the viscosity (308.15 K, 101 kPa, x1 = 0.0501) was 1.249 ± 0.012 mPa·s, the viscosity (308.15 K, 101 kPa, x1 = 0.0598) was 1.373 ± 0.013 mPa·s and the viscosity (308.15 K, 101 kPa, x1 = 0.07) was 1.499 ± 0.014 mPa·s. The viscosity (308.15 K, 101 kPa, x1 = 0.08) was 1.642 ± 0.015 mPa·s, the viscosity (308.15 K, 101 kPa, x1 = 0.0899) was 1.775 ± 0.016 mPa·s and the viscosity (308.15 K, 101 kPa, x1 = 0.1) was 1.927 ± 0.018 mPa·s. It also gave a viscosity (313.15 K, 101 kPa, x1 = 0.0101) of 0.732 ± 0.007 mPa·s, a viscosity (313.15 K, 101 kPa, x1 = 0.02) of 0.82 ± 0.008 mPa·s and a viscosity (313.15 K, 101 kPa, x1 = 0.0256) of 0.9114 ± 0.022 mPa·s. The viscosity (313.15 K, 101 kPa, x1 = 0.03) was 0.907 ± 0.009 mPa·s, the viscosity (313.15 K, 101 kPa, x1 = 0.0399) was 1.005 ± 0.01 mPa·s and the viscosity (313.15 K, 101 kPa, x1 = 0.0501) was 1.105 ± 0.01 mPa·s. The viscosity (313.15 K, 101 kPa, x1 = 0.0558) was 1.267 ± 0.03 mPa·s, the viscosity (313.15 K, 101 kPa, x1 = 0.0598) was 1.213 ± 0.011 mPa·s and the viscosity (313.15 K, 101 kPa, x1 = 0.07) was 1.315 ± 0.012 mPa·s. For the same molecule, the viscosity (313.15 K, 101 kPa, x1 = 0.08) was 1.437 ± 0.013 mPa·s, the viscosity (313.15 K, 101 kPa, x1 = 0.0899) was 1.543 ± 0.014 mPa·s and the viscosity (313.15 K, 101 kPa, x1 = 0.092) was 1.703 ± 0.039 mPa·s. For the same molecule, the viscosity (313.15 K, 101 kPa, x1 = 0.1) was 1.671 ± 0.015 mPa·s, the viscosity (313.15 K, 101 kPa, x1 = 0.1362) was 2.278 ± 0.05 mPa·s and the viscosity (313.15 K, 101 kPa, x1 = 0.1913) was 2.952 ± 0.061 mPa·s. It also gave a viscosity (313.15 K, 101 kPa, x1 = 0.2619) of 4.008 ± 0.077 mPa·s, a viscosity (313.15 K, 101 kPa, x1 = 0.3556) of 5.698 ± 0.097 mPa·s and a viscosity (313.15 K, 101 kPa, x1 = 0.4862) of 8.384 ± 0.12 mPa·s. It also gave a viscosity (313.15 K, 101 kPa, x1 = 0.6804) of 12.88 ± 0.13 mPa·s, a viscosity (313.15 K, 101 kPa, x2 = 0.97) of 0.9218 ± 0.0086 mPa·s and a viscosity (318.15 K, 101 kPa, x1 = 0.0101) of 0.667 ± 0.007 mPa·s. For the same molecule, the viscosity (318.15 K, 101 kPa, x1 = 0.02) was 0.743 ± 0.007 mPa·s, the viscosity (318.15 K, 101 kPa, x1 = 0.03) was 0.819 ± 0.008 mPa·s and the viscosity (318.15 K, 101 kPa, x1 = 0.0399) was 0.904 ± 0.009 mPa·s. It also gave a viscosity (318.15 K, 101 kPa, x1 = 0.0501) of 0.99 ± 0.009 mPa·s, a viscosity (318.15 K, 101 kPa, x1 = 0.0598) of 1.078 ± 0.01 mPa·s and a viscosity (318.15 K, 101 kPa, x1 = 0.07) of 1.168 ± 0.011 mPa·s. The viscosity (318.15 K, 101 kPa, x1 = 0.08) was 1.268 ± 0.012 mPa·s, the viscosity (318.15 K, 101 kPa, x1 = 0.0899) was 1.361 ± 0.013 mPa·s and the viscosity (318.15 K, 101 kPa, x1 = 0.1) was 1.466 ± 0.014 mPa·s. The viscosity (323.15 K, 100 kPa, x1 = 0.2) was 2.308 ± 0.033 mPa·s, the viscosity (323.15 K, 100 kPa, x1 = 0.4) was 4.7 ± 0.08 mPa·s and the viscosity (323.15 K, 100 kPa, x1 = 0.6) was 7.261 ± 0.14 mPa·s. The viscosity (323.15 K, 100 kPa, x1 = 0.8) was 9.984 ± 0.21 mPa·s, the viscosity (323.15 K, 101 kPa, x1 = 0.0101) was 0.611 ± 0.006 mPa·s and the viscosity (323.15 K, 101 kPa, x1 = 0.02) was 0.678 ± 0.007 mPa·s. The viscosity (323.15 K, 101 kPa, x1 = 0.0256) was 0.7514 ± 0.018 mPa·s, the viscosity (323.15 K, 101 kPa, x1 = 0.03) was 0.744 ± 0.007 mPa·s and the viscosity (323.15 K, 101 kPa, x1 = 0.0558) was 0.9714 ± 0.023 mPa·s. For the same molecule, the viscosity (323.15 K, 101 kPa, x1 = 0.092) was 1.282 ± 0.029 mPa·s, the viscosity (323.15 K, 101 kPa, x1 = 0.1362) was 1.644 ± 0.036 mPa·s and the viscosity (323.15 K, 101 kPa, x1 = 0.1913) was 2.138 ± 0.044 mPa·s. For the same molecule, the viscosity (323.15 K, 101 kPa, x1 = 0.2619) was 2.813 ± 0.054 mPa·s, the viscosity (323.15 K, 101 kPa, x1 = 0.3556) was 3.891 ± 0.066 mPa·s and the viscosity (323.15 K, 101 kPa, x1 = 0.4862) was 5.583 ± 0.079 mPa·s. It also gave a viscosity (323.15 K, 101 kPa, x1 = 0.6804) of 8.332 ± 0.081 mPa·s.
